The test deals with T1, BRD9 (Homo sapiens, UniProt Q9H8M2).
T1 sequence (Q9H8M2 1-597): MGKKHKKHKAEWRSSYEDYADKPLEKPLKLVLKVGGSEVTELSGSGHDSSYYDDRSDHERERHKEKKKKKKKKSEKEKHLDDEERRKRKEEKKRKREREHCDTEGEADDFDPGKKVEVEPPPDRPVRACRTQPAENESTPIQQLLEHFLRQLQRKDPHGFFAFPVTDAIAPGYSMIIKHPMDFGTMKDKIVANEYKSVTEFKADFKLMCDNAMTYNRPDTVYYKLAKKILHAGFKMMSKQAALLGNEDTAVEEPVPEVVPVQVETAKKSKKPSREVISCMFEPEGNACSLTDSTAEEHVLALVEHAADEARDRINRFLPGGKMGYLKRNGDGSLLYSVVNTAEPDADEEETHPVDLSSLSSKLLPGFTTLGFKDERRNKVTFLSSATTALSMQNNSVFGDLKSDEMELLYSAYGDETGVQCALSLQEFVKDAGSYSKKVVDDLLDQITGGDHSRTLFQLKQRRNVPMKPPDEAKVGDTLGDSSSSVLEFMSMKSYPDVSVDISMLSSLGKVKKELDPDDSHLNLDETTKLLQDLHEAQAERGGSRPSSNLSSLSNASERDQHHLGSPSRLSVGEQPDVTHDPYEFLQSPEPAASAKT
Put plainly: Degradation of BRD9 (IF), immunofluorescence in MV4-11 cells, 24 hours (Assay Protocol 2). It is filed as cell-based. Also on record: A suspension of MV4-11 cells (ATCC CRL-9591) was prepared; host or cells: MV4-11. To be noted: BRD9 degradation; for DC50: Assay protocol 2, read-out: DC50; for Dmax: MV4-11, Assay protocol 2, read-out: Dmax. On the procedure: Assay Protocol 2—Degradation of BRD9 (IF)
A suspension of MV4-11 cells (ATCC CRL-9591) was prepared in phenol red-free assay media (IMDM Thermo Scientific 21056023+10% FBS ATCC 302025) and cells were seeded at 20,000 cells per well (45 μL) in sterile black poly-d-lysine coated 384 well plates (Greiner 781948). Compounds were prepared at 1000× final concentration in DMSO, diluted 1:100 in assay media, and 5 μL compound was added to each well of the cell plate. Cells were incubated for 24 hours at 37° C. with 5% CO2. All the following incubations for immunofluorescence staining were at room temperature. 15 μL of 16% PFA was added to each well (3.7% final concentration) and the cells were fixed for 15 min then washed twice with DPBS. Cells were permeabilised with 0.1% Triton X-100 for 10 min, Triton X-100 was removed, then blocked with 1% BSA in DPBS for 1 hour. Cells were stained with 25 μL anti-BRD9 E4Q3F antibody (CST 48306) diluted 1:25600 in 1% BSA in DPBS for 2-3 hours. Wels were washed twice with DPBS then incubated with 25 μL of 1% BSA containing a 1:1000 dilution of Anti-rabbit Alexa Fluor™ 647 secondary antibody (Thero Scientific A21244) and 1 μg/mL Hoechst nuclear counter stain (Abcam ab228551) for 1 hour. Wells were washed twice with DPBS prior to imaging on a Perkin Elmer Operetta CLS with 10× air lens. Images were processed using Harmony High-Content Imaging and Analysis Software (Perkin Elmer) and the mean contrast ratio of Alexa Fluor™ 647 in central nuclei was used to quantify BRD9 protein levels. Data was further analysed using Dotmatics software and % BRD9 remaining was calculated by normalisation to average data from high and low control wells (cells treated with DMSO or 100 nM CFT-8634 respectively).

One may read the DC50 as the concentration giving 50% degradation. As a reminder, the Dmax is the largest share of the target that was removed. With `COc1cc(-c2cn(C)c(=O)c(C)c2C)cc(OC)c1CN1CCCN(Cc2cccc3c2CCN(C(=O)/C(C#N)=C/c2cccc(C(F)(F)F)n2)C3C)CC1` (mixture of isomers) [Compound B68, (E/Z)-2-(5-((4-(2,6-dimethoxy-4-(1,4,5-trimethyl-6-oxo-1,6-dihydropyridin-3-yl)benzyl)-1,4-diazepan-1-yl)methyl)-1-methyl-1,2,3,4-tetrahydroisoquinoline-2-carbonyl)-3-(6-(trifluoromethyl)pyridin-2-yl)acrylonitrile], the DC50 is less than 1.25 nM and the Dmax was more than 75%.

Consider `COc1cc(-c2cn(C)c(=O)c(C)c2C)cc(OC)c1CN1CCN(Cc2cccc3c2CCN(C(=O)/C(C#N)=C/C2CCOCC2)C3C)CC1` (mixture of isomers) [Compound B69, (E/Z)-2-(5-((4-(2,6-dimethoxy-4-(1,4,5-trimethyl-6-oxo-1,6-dihydropyridin-3-yl)benzyl)piperazin-1-yl)methyl)-1-methyl-1,2,3,4-tetrahydroisoquinoline-2-carbonyl)-3-(tetrahydro-2H-pyran-4-yl)acrylonitrile], for which the DC50 lay in the range of 1.25 to 10 nM and the Dmax lay within 40 to 70%.

`COc1cc(-c2cn(C)c(=O)c(C)c2C)cc(OC)c1CN1CCN(Cc2cccc3c2CCN(C(=O)/C(C#N)=C/c2cccnc2OC)C3C)CC1` (mixture of isomers) [Compound B70, (E/Z)-2-(5-((4-(2,6-dimethoxy-4-(1,4,5-trimethyl-6-oxo-1,6-dihydropyridin-3-yl)benzyl)piperazin-1-yl)methyl)-1-methyl-1,2,3,4-tetrahydroisoquinoline-2-carbonyl)-3-(2-methoxypyridin-3-yl)acrylonitrile]: the maximal degradation (Dmax) is 40 to 70%.

Consider `COc1ccc(/C=C(\C#N)C(=O)N2CCc3c(CN4CCN(Cc5c(OC)cc(-c6cn(C)c(=O)c(C)c6C)cc5OC)CC4)cccc3C2C)cn1` (mixture of isomers) [Compound B71, (E/Z)-2-(5-((4-(2,6-dimethoxy-4-(1,4,5-trimethyl-6-ox0-1,6-dihydropyridin-3-yl)benzyl)piperazin-1-yl)methyl)-1-methyl-1,2,3,4-tetrahydroisoquinoline-2-carbonyl)-3-(6-methoxypyridin-3-yl)acrylonitrile], for which the DC50 was in the range of 1.25 to 10 nM and the Dmax fell in the range of 40 to 70%.

`COc1cc(-c2cn(C)c(=O)c(C)c2C)cc(OC)c1CN1CCN(Cc2cccc3c2CCN(C(=O)/C(C#N)=C/C2CCC(F)(F)CC2)C3C)CC1` (mixture of isomers) [Compound B72, (E/Z)-3-(4,4-difluorocyclohexyl)-2-(5-((4-(2,6-dimethoxy-4-(1,4,5-trimethyl-6-oxo-1,6-dihydropyridin-3-yl)benzyl)piperazin-1-yl)methyl)-1-methyl-1,2,3,4-tetrahydroisoquinoline-2-carbonyl)acrylonitrile]: the DC50 is 1.25 to 10 nM and the Dmax was 40 to 70%.

For the molecule `COc1cc(-c2cn(C)c(=O)c(C)c2C)cc(OC)c1CN1CCN(Cc2cccc3c2CCN(C(=O)/C(C#N)=C/C2CCCCC2)C3C)CC1` (mixture of isomers) [Compound B73, (E/Z)-3-cyclohexyl-2-(5-((4-(2,6-dimethoxy-4-(1,4,5-trimethyl-6-oxo-1,6-dihydropyridin-3-yl)benzyl)piperazin-1-yl)methyl)-1-methyl-1,2,3,4-tetrahydroisoquinoline-2-carbonyl)acrylonitrile], the DC50 was 25 to 1000 nM and the Dmax fell in the range of 40 to 70%.

On to `COc1cc(-c2cn(C)c(=O)c(C)c2C)cc(OC)c1CN1CCN(Cc2cccc3c2CCN(C(=O)/C(C#N)=C/c2cccc(C#N)c2)C3C)CC1` (mixture of isomers) [Compound B74, (E/Z)-3-(2-cyano-3-(5-((4-(2,6-dimethoxy-4-(1,4,5-trimethyl-6-oxo-1,6-dihydropyridin-3-yl)benzyl)piperazin-1-yl)methyl)-1-methyl-3,4-dihydroisoquinolin-2(1H)-yl)-3-oxoprop-1-en-1-yl) benzonitrile], for which the DC50 is less than 1.25 nM and the Dmax lay within 40 to 70%.

As for `COc1cnc(F)c(/C=C(\C#N)C(=O)N2CCc3c(CN4CCN(Cc5c(OC)cc(-c6cn(C)c(=O)c(C)c6C)cc5OC)CC4)cccc3C2C)c1` (mixture of isomers) [Compound B75, (E/Z)-2-(5-((4-(2,6-dimethoxy-4-(1,4,5-trimethyl-6-oxo-1,6-dihydropyridin-3-yl)benzyl)piperazin-1-yl)methyl)-1-methyl-1,2,3,4-tetrahydroisoquinoline-2-carbonyl)-3-(2-fluoro-5-methoxypyridin-3-yl)acrylonitrile], the DC50 fell in the range of 1.25 to 10 nM and the Dmax fell in the range of 40 to 70%.

As for `COc1cc(-c2cn(C)c(=O)c(C)c2C)cc(OC)c1CN1CCN(Cc2cccc3c2CCN(C(=O)/C(C#N)=C/C2(C)CCC2)C3C)CC1` (mixture of isomers) [Compound B76, (E/Z)-2-(5-((4-(2,6-dimethoxy-4-(1,4,5-trimethyl-6-oxo-1,6-dihydropyridin-3-yl)benzyl)piperazin-1-yl)methyl)-1-methyl-1,2,3,4-tetrahydroisoquinoline-2-carbonyl)-3-(1-methylcyclobutyl)acrylonitrile], the DC50 is 1.25 to 10 nM and the Dmax lay in the range of 40 to 70%.

Take `COc1cc(-c2cn(C)c(=O)c3ccsc23)cc(OC)c1CN1CCC(Oc2cccc3c2CCN(C(=O)/C(C#N)=C/c2cccc(Br)n2)C3C)CC1` (mixture of isomers) [Compound B77]: the DC50 was less than 1.25 nM and the Dmax lay in the range of 40 to 70%.

Take `COc1cc(-c2cn(C)c(=O)c(C)c2C)cc(OC)c1C(=O)N1CCC(Oc2cccc(C3CCCN3C(=O)/C(C#N)=C/C(C)(C)C)c2)CC1` (mixture of isomers) [Compound B79, (E/Z)-2-(2-(3-((1-(2,6-dimethoxy-4-(1,4,5-trimethyl-1-oxo-1,6-dihydropyridin-3-yl)benzoyl)piperidin-4-yl)oxy)phenyl)pyrrolidine-1-carbonyl)-4,4-dimethylpent-2-enenitrile]: the DC50 was less than 1.25 nM and the Dmax was in the range of 70 to 75%.

Consider `COc1cc(-c2cn(C)c(=O)c(C)c2C)cc(OC)c1C(=O)N1CCN(Cc2cccc3c2CCN(C(=O)/C(C#N)=C/c2cccc(Br)n2)C3C)CC1` (mixture of isomers) [Compound B80, (E/Z)-3-(6-bromopyridin-2-yl)-2-(5-((4-(2,6-dimethoxy-4-(1,4,5-trimethyl-6-oxo-1,6-dihydropyridin-3-yl)benzoyl)piperazin-1-yl)methyl)-1-methyl-1,2,3,4-tetrahydroisoquinoline-2-carbonyl)acrylonitrile], for which the DC50 is less than 1.25 nM and the Dmax is 40 to 70%.

Take `COc1cc(-c2cc(C)c(=O)n(C)c2)cc(OC)c1CN1CCN(Cc2cccc(C3CCCN3C(=O)/C(C#N)=C/C(C)(C)C)c2)CC1` (mixture of isomers) [Compound B81]: the half-maximal degradation concentration (DC50) is less than 1.25 nM and the greatest degradation seen (Dmax) is more than 75%.

As for `COc1cc(-c2cn(C)c(=O)c(C)c2C)cc(OC)c1CN1CCN(C(=O)CCCCOc2ccc(C3CCCN3C(=O)/C(C#N)=C/c3nccs3)cc2)CC1` (mixture of isomers) [Compound B82], the DC50 lay within 25 to 1000 nM and the Dmax was in the range of 40 to 70%.

In the case of `COc1cc(-c2cn(C)c(=O)c(C)c2C)cc(OC)c1CN1CCN(C(=O)COCCOc2ccc3c(c2)C(C)N(C(=O)/C(C#N)=C/c2nccs2)CC3)CC1` (mixture of isomers) [Compound B83, (E/Z)-2-(7-(2-(2-(4-(2,6-dimethoxy-4-(1,4,5-trimethyl-6-oxo-1,6-dihydropyridin-3-yl)benzyl)piperazin-1-yl)-2-oxoethoxy)ethoxy)-1-methyl-1,2,3,4-tetrahydroisoquinoline-2-carbonyl)-3-(thiazol-2-yl)acrylonitrile], the DC50 is 1.25 to 10 nM and the Dmax was more than 75%.

These data come from US20260092061A1, “COMPOUNDS FOR TARGETED PROTEIN DEGRADATION” (Amphista Therapeutics Limited, priority 2022, published 2026).
